Patent US20200306377A1, “METHODS FOR ENHANCING 5-AMINOLEVULINIC ACID-BASED MEDICAL IMAGING AND PHOTOTHERAPY” (priority 2017, published 2020)

What was measured:
Assay type in all cases: cell-based
[1] = tested on: SKBR3 human breast cancer cells; assay: Resistance to photo-bleaching after uptake and irradiation; conditions: after uptake, 1 minute of irradiation
Experimental: (§1) A 5-ALA solution in deionized H2O at 100 mM was prepared and added when required at a final concentration of 200 uM (6 uL per well). After the predetermined incubation time, cells are fixed using the following protocol. The medium was removed and the cells gently rinsed with PBS buffer (2 mL per well), two mL fixation medium (3.7% formaldehyde in PBS) was added followed by incubation at room temperature (RT) for 15 min. The fixation medium was removed and fresh PBS was added to gently rinse the cells. The coverslips were removed from the wells and mounted on glass slides. […] Within each study, all microscopic settings (filter, light intensity, exposure time, and magnification) were identical. Microscopic images of the cells after treatment with various types of QDs and/or 5-ALA are shown in FIGS. 2A-2L through FIGS. 4A-4K.

[2] = tested on: normal human fibroblast cells (HFF); assay: Labeling of normal fibroblast cells; conditions: 16 hrs, QD 50 μg/mL, free 5-ALA 0.2 mM
[3] = tested on: SKBR3 human breast cancer cells; assay: Comparison of 5-ALA intracellular uptake, fluorescence microscopy; conditions: incubation 3, 5, 16 h, QDs about 50 ug/mL, free 5-ALA 200 uM
Experimental: as §1, with “SKBR3 human breast cancer cells are cultivated in 6 well plates supplied with glass coverslips using McCoy's 5a medium from ATCC (3 mL per well). […]” for “A 5-ALA”, “identical.” for “identical. Microscopic images of the cells after treatment with various types of QDs and/or 5-ALA are shown in FIGS. 2A-2L through FIGS. 4A-4K.”

Q: How did the photo-bleaching [1] turn out when `NCC(=O)CCC(=O)O` [free 5-ALA, 5-Aminolevulinic acid] was run?
A: rapid photo-bleaching and signal disappearance

Q: What about the “labeling of normal cells” value [2] of the same molecule?
A: lack of labeling

Q: And the “emission at 630 nm” value [3]?
A: weaker emission
